Tests used:
[1] = tested on: PTLD-like EBV+ B cell lines; test: in vitro cell growth inhibition (3H-thymidine incorporation); format: cell-based, human; settings: for degree of inhibition of growth: 0-10 nanomolar
Description: Most cell lines used in this study were lymphoblastoid B-cell lines obtained by in vitro infection with EBV of peripheral blood mononuclear cells (PBMC). Cell lines A1 and A2D6 were obtained from normal, healthy individuals. Cell lines 15A and 20A were obtained from two different patients with a low grade B-cell lymphoma with monoclonal cold agglutinins (Silberstein et al., 1991, Blood 78:2372-2386). Both lines secreted cold agglutinins with the same specificity as the cold agglutinins found in the patient's serum (Silberstein et al., 1991, Blood 78:2372-2386). […] LCL B-cell line was obtained from a patient with a progressive cutaneous T-cell lymphoproliferative disorder (Zhang et al., 1996, Proc. Natl. Acad. Sci. USA 93:9148-9153). BC-1 is derived from a peritoneal effusion B-cell lymphoma (PEL) and, in addition to EBV, harbors […] virus (Cesarman et al., 1995, Blood 86:2708-2714). The other 3 cell lines used as controls in the in vitro growth inhibition assay were HTLV-I (+) T-cell lines ATL-2 (Maeda et al., 1985, Exp. Med. 162:2169-2174); C10MJ2 (Popovic et al., 1983, Science 219: 856-859); and HUT102B (Poiescz, 1980, Proc. Natl. Acad. Sci. USA 77:7415-7419; Bunn, et al, 1996, J. Cell. Biochem. Suppl 24:12-23) derived from patients with adult T-cell leukemia/lymphoma (ATLL). They were shown by us to be non-responsive to SDZ RAD and the related, immunosuppressive macrolide, rapamycin (Zhang et al., 1999, Leukemia Res. 23:373-384). All cell lines were maintained in humidified incubators at 37° C. in an atmosphere containing 5% CO2 in standard medium: RPMI Medium 1640 (Gibco BRL, Grand Island, N.Y.) supplemented with 10% (v/v) heat inactivated fetal bovine serum (BioWhittaker, Walkersville, Md.), 1% penicillin/streptomycin/fungizone mixture (Gibco BRL), and 2 millimolar L-glutamine (Gibco BRL).
An assay to assess inhibition of in vitro cell growth by SDZ RAD was performed as described (Zhang et al., 1999, Leukemia Res. 23:373-384; Zhang et al., 1996, Proc. Natl. Acad. Sci. USA 93:9148-9153). Briefly, cell lines were cultured for 32 hours in triplicate at 2×10^4 cells per well in the presence of various concentrations of SDZ RAD (Novartis Pharma, Basel). After pulsing the cells with 0.5 microcurie ^3H-thymidine (New England Nuclear, Boston, Mass.) and culturing the cells for the next 18 hours, isotope incorporation into the cells was measured. The results of proliferation assays were expressed as the mean radioactivity of triplicate cultures. Standard deviation within the triplicates was <15%.
In order to determine whether SDZ RAD can inhibit proliferation of cells mimicking PTLDs, 6 different EBV^+ B cell lines were cultured in vitro in the presence of the drug at various concentrations. […]

20A line = test: apoptosis (Annexin V flow cytometry); format: cell-based, human; settings: 24 hours
Protocol: (§1) The cell lines to be examined were cultured with several concentrations of SDZ RAD (0 to 10 nanomolar) for 24-48 hours. The cells were washed with DPBS and stain solution (pH 7.2) containing 3% PEG 6000, 50 micrograms per milliliter DNA fluorochrome propidium iodide (PI; Calbiochem, San Diego, Calif.), annexin V-FITC as described (Douglas et al., 1998, Cytometry 32:57-65) 0.1% (v/v) TRITON™ X (Sigma, St. Louis, Mo.), 4 millimolar citrate buffer pH 7.8, and 360 units per milliliter RNase A (Worthington Biochemicals, Freehold, N.J.) for 30 minutes at 37 C. Next, salt solution pH 7.2 (3% w/v PEG 6000, PI 50 micrograms per milliliter, 0.1% v/v TRITON™ X, and 0.4 molar NaCl) was added, and the cells were incubated at 4° C. in the dark for 1 hour before flow cytometry analysis was performed, as described (Douglas et al., 1998, Cytometry 32:57-65; Kawamata et al., 1998, Blood 91:561-569; Pepper et al., 1998, Leuk. Res. 22:439-444).
(§2) Previous studies have shown that immunosuppressive macrolides as represented by rapamycin can induce or enhance apoptosis stimulated by other agents (Gottschalk et al., 1994, Proc. Natl. Acad. Sci. USA 91:7350-7354; Muthukkumar et al., 1995, Transplantation 60:264-270; Shi et al., 1995, Cancer Res. 55:1982-1988; Hosoi et al., 1999, Cancer Res. 59:886-894). In order to determine if SDZ RAD affects the apoptotic rate in PTLD-like cells, we tested apoptosis-induced surface expression of Annexin V by flow cytometry in the 20A, A1, A2D6 cell lines (FIG. 3). […] In A2D6 line, it led to 11% increase, and in the 20A line to 12% increase. At the highest dose (10 nanomolar), SDZ RAD led to approximately 240% increase in A1 line and 45% increase in both A2D6 and 20A lines.

A1 line = test: apoptosis (Annexin V flow cytometry); format: cell-based, human; settings: 24 hours
Protocol: as §1, §2

A2D6 line = test: apoptosis (Annexin V flow cytometry); format: cell-based, human; settings: 24 hours
Protocol: as §1, §2

[2] = tested on: HTLV-I (+) T-cell lines ATL-2, C10MJ2, HUT102B; settings: Zhang et al., 1999, Leukemia Res. 23:373-384; cited from earlier work

CO[C@H]1C[C@@H]2CC[C@@H](C)[C@@](O)(O2)C(=O)C(=O)N2CCCC[C@H]2C(=O)O[C@H]([C@H](C)C[C@@H]2CC[C@@H](OCCO)[C@H](OC)C2)CC(=O)[C@H](C)/C=C(\C)[C@@H](O)[C@@H](OC)C(=O)[C@H](C)C[C@H](C)/C=C/C=C/C=C/1C [SDZ RAD, 40-O-(2-hydroxy)ethyl-rapamycin]
inhibition of growth ([1]; 1 nanomolar, all EBV+ B cell lines, 32 hours culture then 18 hours 3H-thymidine pulse): 60-95%
sensitivity of cell lines to the drug ([1]; all PTLD-like EBV+ B cell lines): very sensitive
degree of inhibition of growth ([1]; cell lines obtained from normal B cells): 90-100%
degree of inhibition of growth ([1]; lines derived from patients with B-cell lymphomas (15A, 20A and BC-1)): 80-90%
increase in the number of apoptotic cells (20A line; 1 nanomolar): 12%
increase in the number of apoptotic cells (20A line; 10 nanomolar): 45%
increase in the number of apoptotic cells (A1 line; 1 nanomolar): approximately 60%
percentage of apoptotic cells (A1 line; 1 nanomolar, from 10% without drug): 16%
increase in the number of apoptotic cells (A1 line; 10 nanomolar): approximately 240%
increase in the number of apoptotic cells (A2D6 line; 1 nanomolar): 11%
increase in the number of apoptotic cells (A2D6 line; 10 nanomolar): 45%
response of cell lines to the drug [2]: non-responsive

Reference: US8778961B2, “O-methylated rapamycin derivatives for alleviation and inhibition of lymphoproliferative disorders” (The Trustees of the University of Pennsylvania, priority 2000, dated 2014)
